According to BigSolDB 2.1:

CCCCN(CCCC)CC(O)c1cc(Cl)cc2c1-c1ccc(Cl)cc1/C2=C/c1ccc(Cl)cc1 (stereo not given)
solubility (mole fraction)
Conditions | 278.15 K | 283.15 K | 288.15 K | 293.15 K | 298.15 K | 303.15 K | 308.15 K | 313.15 K | 318.15 K | 323.15 K
in ethanol | 5.32e-05 | 7.11e-05 | 9.63e-05 | 0.000127 | 0.000158 | 0.000213 | 0.000265 | 0.000323 | 0.000401 | 0.000497
in ethyl acetate | 0.00178 | 0.00233 | 0.00315 | 0.00409 | 0.00538 | 0.0069 | 0.009 | 0.0116 | 0.0151 | 0.0201
in methanol | 1.34e-05 | 1.7e-05 | 2.27e-05 | 3.03e-05 | 3.81e-05 | 4.95e-05 | 6.28e-05 | 8.17e-05 | 0.000105 | 0.000136
in methyl acetate | 0.000656 | 0.000903 | 0.00136 | 0.00186 | 0.00262 | 0.00364 | 0.00495 | 0.00669 | 0.00913 | 0.0126
in n-butanol | 0.000137 | 0.000182 | 0.000281 | 0.00038 | 0.000493 | 0.00065 | 0.000851 | 0.00115 | 0.00147 | 0.00187
in n-butyl acetate | 0.00423 | 0.00531 | 0.00672 | 0.00864 | 0.0108 | 0.0137 | 0.0175 | 0.0223 | 0.0285 | 0.0359
in n-heptanol | 0.000337 | 0.000437 | 0.000586 | 0.000781 | 0.0011 | 0.00149 | 0.00193 | 0.00245 | 0.00339 | 0.0045
in n-hexanol | 0.00021 | 0.000315 | 0.000477 | 0.000604 | 0.000886 | 0.00119 | 0.00171 | 0.00214 | 0.00289 | 0.00387
in n-octanol | 0.000352 | 0.000474 | 0.00073 | 0.000945 | 0.00125 | 0.00172 | 0.00221 | 0.00298 | 0.00385 | 0.00516
in n-pentanol | 0.000215 | 0.00028 | 0.000423 | 0.000555 | 0.000745 | 0.000968 | 0.0013 | 0.0017 | 0.0022 | 0.00288
in n-pentyl acetate | 0.00474 | 0.00654 | 0.00846 | 0.011 | 0.0137 | 0.0168 | 0.0211 | 0.0252 | 0.0326 | 0.0406
in n-propanol | 8.62e-05 | 0.000107 | 0.000145 | 0.00021 | 0.000279 | 0.000388 | 0.000502 | 0.000696 | 0.000967 | 0.00131
in n-propyl acetate | 0.00281 | 0.00365 | 0.00485 | 0.00653 | 0.00838 | 0.0109 | 0.0139 | 0.018 | 0.0231 | 0.0304
